Measurements reported in patent EP4603105A1, “PHARMACEUTICAL COMPOSITION CONTAINING CYCLIC COMPOUND HAVING SELECTIVE KRAS INHIBITORY EFFECT AGAINST HRAS AND NRAS” (CHUGAI SEIYAKU KABUSHIKI KAISHA, priority 2022, dated 2024).
Where a SMILES comes first, the peptide text is derived from it. Bridges are numbered along the chain shown (N, C = ends). [ ]: non-standard residue; d: D form. hPhe(3-Cl-4-CF3) = N[C@@H](CCc1ccc(C(F)(F)F)c(Cl)c1)C(=O)O; NPrPhe(4-CF3) = CCCN[C@@H](Cc1ccc(C(F)(F)F)cc1)C(=O)O; NMeGly(cPent) = CN[C@H](C(=O)O)C1CCCC1; NMeL = CN[C@@H](CC(C)C)C(=O)O; NMeA = CN[C@@H](C)C(=O)O; Aze = O=C(O)[C@@H]1CCN1; Ac4c = NC1(C(=O)O)CCC1; Sar = CNCC(=O)O

Tests used:
[1] = system: human lung cancer strain NCI-H441; format: cell-based
In short: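 Signal came from […] measured per well once the reagent was added. Beforehand, cells were cultured at 37°C and 5% carbon dioxide on a compound series serially diluted in dimethyl sulfoxide.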

[2] = target: GDP-bound NRAS wild-type protein (Homo sapiens, UniProt P01111); assay: Binding to NRAS by surface plasmon resonance (SPR), KD and KD ratio to KRAS
In short: (§1)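 Each cycle, GDP-bound biotin-Avi RAS was captured (~100–300 RU), compound concentrations were injected low to high for 75 s each at 100 µL/min, then the chip was regenerated. Buffer: HBS pH 7.4, 10 mM MgCl2, 10 µM GDP, 1 mM DTT, 4% DMSO; 30°C. KD from a 1:1 binding model.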

HRAS wild-type protein = HRAS wild-type protein (Homo sapiens, UniProt P01112); assay: Binding to HRAS by surface plasmon resonance (SPR), KD and KD ratio to KRAS
In short: as §1

[3] = ratio of the KD value with respect to GDP-bound NRAS wild-type protein to the KD value with respect to KRAS
[4] = ratio of the KD value with respect to HRAS wild-type protein to the KD value with respect to KRAS
[5] = ratio of KD for GDP-bound NRAS wild-type protein to KD for KRAS
[6] = ratio of KD for HRAS wild-type protein to KD for KRAS
[7] = ratio of KD value for GDP-bound NRAS wild-type protein to KD value for KRAS (SPR)
[8] = ratio of KD value for HRAS wild-type protein to KD value for KRAS (SPR)

GDP-bound NRAS wild-type protein, sequence (P01111 whole entry): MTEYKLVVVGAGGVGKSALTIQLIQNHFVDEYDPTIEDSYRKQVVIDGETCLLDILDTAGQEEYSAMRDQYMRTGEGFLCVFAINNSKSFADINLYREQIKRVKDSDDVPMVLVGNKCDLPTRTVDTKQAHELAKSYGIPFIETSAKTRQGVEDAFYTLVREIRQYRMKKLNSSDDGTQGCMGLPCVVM
HRAS wild-type protein, sequence (P01112 whole entry): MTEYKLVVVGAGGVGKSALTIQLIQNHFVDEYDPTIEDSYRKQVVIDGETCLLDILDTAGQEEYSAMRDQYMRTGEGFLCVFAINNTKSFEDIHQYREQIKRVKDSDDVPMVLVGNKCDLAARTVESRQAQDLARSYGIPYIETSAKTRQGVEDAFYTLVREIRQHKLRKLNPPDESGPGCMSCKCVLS

| Compound | IC50 [1] | NRAS /KRAS [2, 3] | HRAS /KRAS (HRAS wild-type protein; [4]) | NRAS /KRAS [2, 5] | HRAS /KRAS (HRAS wild-type protein; [6]) | NRAS /KRAS [2, 7] | HRAS /KRAS (HRAS wild-type protein; [8]) |
| --- | --- | --- | --- | --- | --- | --- | --- |
| CCCOC[C@H]1C(=O)N[C@@H]([C@@H](C)CC)C(=O)N(C)CC(=O)N(C)[C@H]2C/C=C\CCN(C2=O)[C@@H](Cc2ccc(C)cc2)C(=O)N(C)CC(=O)N[C@@H](CCc2ccc(C(F)(F)F)c(Cl)c2)C(=O)N2C[C@H](C)C[C@H]2C(=O)NC2(CC(C)(C)C2)C(=O)N(C)[C@@H](C2CCCC2)C(=O)N(C)[C@H](C(=O)N(C)C)CC(=O)N1C [PP2234] | 11.1 nM | A (a compound having 10 or more and less than 20 is denoted as A) | A (a compound having 10 or more and less than 20 is denoted as A) | – | – | – | – |
| CCCN1C(=O)[C@@H]2CCN2C(=O)[C@H](C)N(C)C(=O)[C@H]([C@@H](C)CC)NC(=O)[C@H](CC(C)C)N(C)C(=O)C[C@@H](C(=O)N(C)C)NC(=O)[C@H](C2CCCC2)N(C)C(=O)C2(CCC2)NC(=O)[C@@H]2CCCN2C(=O)[C@H](CCc2ccc(C(F)(F)F)c(Cl)c2)NC(=O)CN(C)C(=O)[C@@H]1Cc1ccc(C(F)(F)F)cc1 [PP0380] ([NMeL]I[NMeA][Aze][NPrPhe(4-CF3)][Sar][hPhe(3-Cl-4-CF3)]P[Ac4c][NMeGly(cPent)]D-NMe2; lactam N-11) | 16.4 nM | – | – | C (A compound having a KD ratio of 0.1 or more and less than 3 is denoted as C) | B (a compound having 3 or more and less than 10 is denoted as B) | – | – |
| CCCN1CC(=O)N(C)[C@H]2C/C=C\CCN(C2=O)[C@@H](Cc2ccc(C(F)(F)F)cc2)C(=O)N(C)CC(=O)N[C@@H](CCc2cc(F)c(C(F)(F)F)c(F)c2)C(=O)N2C[C@H](OCC)C[C@H]2C(=O)NC2(CCC2)C(=O)N(C)[C@@H](C2CCCC2)C(=O)N(C)[C@H](C(=O)N(C)C)CC(=O)N(C)[C@@H](CC)C(=O)N[C@@H]([C@@H](C)CC)C1=O [PP1053] | 67.8 nM | – | – | A (a compound having 10 or more and less than 20 is denoted as A) | A (a compound having 10 or more and less than 20 is denoted as A) | – | – |
| CC[C@H](C)[C@@H]1NC(=O)[C@H](CC(C)C)N(C)C(=O)C[C@@H](C(=O)N2CCOCC2)N(C)C(=O)[C@H](C2CCCC2)N(C)C(=O)C2(CCC2)NC(=O)[C@@H]2[C@@H](OC)CCN2C(=O)[C@H](CCc2cc(F)c(C(F)(F)F)c(F)c2)NC(=O)CN(C)C(=O)[C@H](Cc2ccc(C(F)(F)F)cc2)N2CCCCC[C@@H](C2=O)N(C)C(=O)CN(C)C1=O [PP1067] | 299 nM | – | – | B (a compound having 3 or more and less than 10 is denoted as B) | B (a compound having 3 or more and less than 10 is denoted as B) | – | – |
| CCC[C@H]1C(=O)N[C@@H]([C@@H](C)CC)C(=O)N(C)CC(=O)N(C)[C@H]2C/C=C\CCN(C2=O)[C@@H](Cc2ccc(C(F)(F)F)cc2)C(=O)N(C)CC(=O)N[C@@H](CCc2ccc(Cl)c(Cl)c2)C(=O)N2CC[C@H]2C(=O)NC2(CC(C)(C)C2)C(=O)N(C)[C@@H](C(CC)CC)C(=O)N(C)[C@H](C(=O)N(C)C)CC(=O)N1C [PP2921] | 160 nM | – | – | AA (a compound having 20 or more is denoted as AA) | A (a compound having 10 or more and less than 20 is denoted as A) | – | – |
| CCO[C@@H]1C[C@H]2C(=O)NC3(CCC3)C(=O)N(C)[C@@H](C3CCCC3)C(=O)N(C)[C@H](C(=O)N3CCOCC3)CC(=O)N(C)[C@@H](CCOC)C(=O)N[C@@H]([C@@H](C)CC)C(=O)N(C)CC(=O)N(C)[C@H]3CCCCCN(C3=O)[C@@H](Cc3ccc(C(F)(F)F)cc3)C(=O)N(C)CC(=O)N[C@@H](CCc3cc(F)c(C(F)(F)F)c(F)c3)C(=O)N2C1 [PP0690] | 60.7 nM | B (a compound having 3 or more and less than 10 is denoted as B) | B (a compound having 3 or more and less than 10 is denoted as B) | – | – | – | – |
| CCO[C@@H]1C[C@H]2C(=O)NC3(CCC3)C(=O)N(C)[C@@H](C3CCCC3)C(=O)N(C)[C@H](C(=O)N(C)CC)CC(=O)N(C)[C@@H](C3CC3)C(=O)N[C@@H]([C@@H](C)CC)C(=O)N(C)CC(=O)N(C)[C@H]3C/C=C\CCN(C3=O)[C@@H](Cc3ccc(C(F)(F)F)cc3)C(=O)N(C)CC(=O)N[C@@H](CCc3ccc(C(F)(F)F)c(OC)c3)C(=O)N2C1 [PP2021] | 4.9 nM | A (a compound having 10 or more and less than 20 is denoted as A) | B (a compound having 3 or more and less than 10 is denoted as B) | – | – | – | – |

The remaining molecules from weak to strong by IC50 [1], led by results:

| IC50 [1] | Compound | NRAS /KRAS [2, 3] | HRAS /KRAS (HRAS wild-type protein; [4]) | NRAS /KRAS [2, 5] | HRAS /KRAS (HRAS wild-type protein; [6]) | NRAS /KRAS [2, 7] | HRAS /KRAS (HRAS wild-type protein; [8]) |
| --- | --- | --- | --- | --- | --- | --- | --- |
| 207 nM | CCO[C@@H]1C[C@H]2C(=O)NC3(CCCC3)C(=O)N(C)[C@@H](C3CCCC3)C(=O)N(C)[C@H](C(=O)N(C)C)CC(=O)N(C)[C@@H](CC(C)C)C(=O)N[C@@H]([C@@H](C)CC)C(=O)N(C)CC(=O)N(C)[C@H]3CC(C)=C(C)CN(C3=O)[C@@H](Cc3ccc(C(F)(F)F)cc3)C(=O)N(C)CC(=O)N[C@@H](CCc3cc(F)c(C(F)(F)F)c(F)c3)C(=O)N2C1 [PP1045] | – | – | C (A compound having a KD ratio of 0.1 or more and less than 3 is denoted as C) | C (A compound having a KD ratio of 0.1 or more and less than 3 is denoted as C) | – | – |
| 92 nM | CC[C@H](C)[C@@H]1NC(=O)[C@H](C(C)C)N(C)C(=O)C[C@@H](C(=O)N(C)CC)N(C)C(=O)[C@H](C2CCCC2)N(C)C(=O)C2(CC(C)(C)C2)NC(=O)[C@@H]2C[C@H](C)CN2C(=O)[C@H](CCc2cc(F)c(C(F)(F)F)c(F)c2)NC(=O)CN(C)C(=O)[C@H](Cc2ccc(C(F)(F)F)cc2)N2CC/C=C\C[C@@H](C2=O)N(C)C(=O)CN(C)C1=O [PP1976] | AA (a compound having 20 or more is denoted as AA) | A (a compound having 10 or more and less than 20 is denoted as A) | – | – | – | – |
| 4.9 nM | CCO[C@@H]1C[C@H]2C(=O)NC3(CC(C)(C)C3)C(=O)N(C)[C@@H](C3CCCC3)C(=O)N(C)[C@H](C(=O)N(C)CC)CC(=O)N(C)[C@H]3CCC/C=C/c4ccc(cc4)C[C@@H](C(=O)N(C)CC(=O)N[C@@H](CCc4cc(F)c(C(F)(F)F)c(F)c4)C(=O)N2C1)N1CC/C=C\C[C@@H](C1=O)N(C)C(=O)CN(C)C(=O)[C@H]([C@@H](C)CC)NC3=O [PP1835] | – | – | – | – | A (a compound having 10 or more and less than 20 is denoted as A) | B (a compound having 3 or more and less than 10 is denoted as B) |
| 4.6 nM | CCO[C@@H]1C[C@H]2C(=O)NC3(CC(C)(C)C3)C(=O)N(C)[C@@H](C3CCCC3)C(=O)N(C)[C@H](C(=O)N(C)C)CC(=O)N(C)[C@@H](C)C(=O)N[C@@H]([C@@H](C)CC)C(=O)N(C)CC(=O)N(C)[C@H]3C/C=C\CCN(C3=O)[C@@H](Cc3ccc(C(F)(F)F)cc3)C(=O)N(C)CC(=O)N[C@@H](CCc3cc(F)c(C(F)(F)F)c(F)c3)C(=O)N2C1 [PP1641] | – | – | – | – | A (a compound having 10 or more and less than 20 is denoted as A) | A (a compound having 10 or more and less than 20 is denoted as A) |
| 2.2 nM | CCO[C@@H]1C[C@H]2C(=O)NC3(CC(C)(C)C3)C(=O)N(C)[C@@H](C3CCCC3)C(=O)N(C)[C@H](C(=O)N(C)CC)CC(=O)N(C)[C@@H](CC(C)C)C(=O)N[C@@H]([C@@H](C)CC)C(=O)N(C)CC(=O)N(C)[C@H]3C/C=C\CCN(C3=O)[C@@H](Cc3ccc(C(F)F)cc3)C(=O)N(C)CC(=O)N[C@@H](CCc3cc(F)c(C(F)(F)F)c(F)c3)C(=O)N2C1 [PP2046] | A (a compound having 10 or more and less than 20 is denoted as A) | A (a compound having 10 or more and less than 20 is denoted as A) | – | – | – | – |
